# From US20100120711A1, “AMPK POTENTIATOR CONTAINING CHITO-OLIGOSACCHARIDE” (AMOREPACIFIC CORPORATION, priority 2006, published 2010)
# Assays:
# Assay type in all cases: cell-based
# ACC = ACC activation: western blot of ACC and p-ACC protein expression in liver cells; conditions: HepG2 liver cells
# Description: (§1) Chito-oligosaccharides with a molecular weight of 2,000 and 9,000 (100, 500 ppm) and liver cells (HepG2) treated by AICAR (1 mM) were added to a lysis buffer (50 mM Tris-HCl, pH 7.4, 150 mM NaCl, 0.1% SDS, 1.0% Triton X-100. 0.25% Deoxycholate, 1 mM EDTA, 1 mM PMSF) to disrupt the cells. The homogenate was centrifuged at 12,000 rpm for 15 minutes and a layer of protein was obtained. The degree of expression of ACC and p-ACC proteins was determined by a western blotting. 50 μg of protein was loaded on SDS-polyacrylamide gel, electrophoresis was carried out, and the gel was transferred to a nitrocellulose membrane. The membrane was reacted with blocking solution (5% skim milk, 10 mM Tris, pH7.5, 10 mM NaCl, 0.1% Tween 20) for 1 hour to remove nonspecific bindings, the primary antibodies to AMPK and p-AMPK proteins were added and it was maintained overnight at 4° C. Thereafter, it was washed with a blocking solution for 10 minutes three times, the secondary antibodies were added thereto, and they were reacted for 1 hour and washed as described above. After adding ECL solution, the membrane was exposed to X-ray film and the amount of protein was measured. The change in the amount of protein was calculated by an optical density with an image analyzer.
# The expressions of ACC and p-ACC proteins were measured by a Western blotting as described above.
# liver cells (HepG2) [1] = assay: Fatty acid oxidation in liver cells ([1-14C]-palmitate); conditions: 6 hours culture, positive control
# Description: To determine the degree of fatty acid oxidation in liver cells, HepG2 cells were seeded on a 96-well plate. After stabilizing the seeded plate, AICAR and chito-oligosaccharide were added in a concentration of 100 and 500 ppm. After culturing for 6 hours, to the cells was added […] of assay buffer (20 mM HEPES, 25 mM NaHCO3, 1.2 mM KH2PO4, 3 mM glucose, 114 mM NaCl, 4.7 mM KCl, 1.2 mM MgSO4, 2.5 mM CaCl2, 1% ultra fatty acid-free BSA) and they are reacted for 30 minutes. Then, [1-^14C]-palmitate (3.4 μCi; 1.0 μCi/μmole) was incorporated thereto and labeling was carried out for 2 hours. 5% perchloric acid was added to stop the reaction and the amount of radiation was measured.
# liver cells (HepG2) [2] = assay: Production of ATP in liver cells (ATP assay kit, luminescence); conditions: 5 to 500 ppm, 24 hours culture
# Description: The production of ATP according to AMPK activation was measured by ATP assay kit. HepG2 cells were seeded on a 96-well plate and the seeded plate was stabilized and, thereafter, AICAR and chito-oligosaccharide were added in a concentration of 5 to 500 ppm. After culturing for 24 hours, the reagent prepared by mixing a substrate and a buffer was added to each well and they were reacted for 30 minutes at a room temperature. Cells were disrupted by mixing them in an orbital shaker and, after stabilizing them for 10 minutes, a luminescence was measured.
# AMPK = AMPK activation: western blot of AMPK and p-AMPK protein expression in liver cells; conditions: HepG2 liver cells; AICAR 1 mM; chito-oligosaccharide 100, 500 ppm; western blot optical density
# Description: as §1
smiles,measurement,setting,value
"NC(=O)c1ncn([C@@H]2O[C@H](CO)[C@@H](O)[C@H]2O)c1N [AICAR, AICA-riboside]",amount of p-ACC protein expression,"ACC; AICAR 1 mM, chito-oligosaccharide concentration not specified",up to twice
same,total amount of ACC protein expression,ACC; western blot,not changed
same,increased oxidation of fatty acid,liver cells (HepG2) [1],about 35%
same,production of ATP,liver cells (HepG2) [2],up to twice
same,expression of p-AMPK protein,AMPK,increased twice or more
